Data from ChEMBL document CHEMBL1143763, “Synthesis, in vitro assay, and molecular modeling of new piperidine derivatives having dual inhibitory potency against acetylcholinesterase and Abeta1-42 aggregation for Alzheimer's disease therapeutics” (Bioorg Med Chem, 2007).

Molecular target: Cholinesterase (Homo sapiens, UniProt P06276)
Sequence (P06276 whole entry): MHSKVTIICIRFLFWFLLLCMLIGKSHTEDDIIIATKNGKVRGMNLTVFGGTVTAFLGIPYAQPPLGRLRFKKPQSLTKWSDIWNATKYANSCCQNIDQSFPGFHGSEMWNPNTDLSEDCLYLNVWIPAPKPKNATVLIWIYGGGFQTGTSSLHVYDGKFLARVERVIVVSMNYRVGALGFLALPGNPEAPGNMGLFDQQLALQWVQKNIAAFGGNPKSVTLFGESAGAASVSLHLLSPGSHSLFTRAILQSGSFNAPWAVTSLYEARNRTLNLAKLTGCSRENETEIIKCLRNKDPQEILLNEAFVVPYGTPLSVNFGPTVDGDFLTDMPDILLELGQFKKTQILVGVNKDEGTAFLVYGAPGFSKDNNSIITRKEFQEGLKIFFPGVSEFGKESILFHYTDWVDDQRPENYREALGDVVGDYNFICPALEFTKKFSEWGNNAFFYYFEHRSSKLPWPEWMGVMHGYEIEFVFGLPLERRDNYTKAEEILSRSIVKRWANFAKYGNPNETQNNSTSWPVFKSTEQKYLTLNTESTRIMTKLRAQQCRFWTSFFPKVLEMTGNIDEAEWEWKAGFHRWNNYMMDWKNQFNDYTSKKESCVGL
Description: Inhibition of human BChE by Ellman's method

| SMILES | IC50 [µM] |
| --- | --- |
| O=C(OCCCCN1CCC(OCc2ccccc2)CC1)c1ccc(F)cc1 | 0.56 |
| O=C(OCCCCN1CCC(OC(c2ccccc2)c2ccccc2)CC1)c1cccc(F)c1 | 31.5 |
| O=C(OCCCCN1CCC(OCc2ccccc2)CC1)c1cccc(Cl)c1 | 1.35 |
| CC(C)c1ccc(C(=O)OCCCCN2CCC(OCc3ccccc3)CC2)cc1 | 10.8 |
| CC(C)c1ccc(C(=O)OCCCCN2CCC(OC(c3ccccc3)c3ccccc3)CC2)cc1 | 23.2 |
| O=C(OCCCCN1CCC(OCc2ccccc2)CC1)c1cccc(F)c1 | 1.58 |
| CC(C)(C)c1ccc(C(=O)OCCCCN2CCC(OCc3ccccc3)CC2)cc1 | 15.2 |
| O=C(OCCCCN1CCC(OC(c2ccccc2)c2ccccc2)CC1)c1ccc(Cl)cc1 | 38.4 |
| O=C(OCCCCN1CCC(OC(c2ccccc2)c2ccccc2)CC1)c1ccc(F)cc1 | 22.2 |
| O=C(Nc1ccc(F)cc1)OCCCCN1CCC(OCc2ccccc2)CC1 | 0.78 |
| CC(C)(C)c1ccc(C(=O)OCCCCN2CCC(OC(c3ccccc3)c3ccccc3)CC2)cc1 | 78.9 |
| O=C(OCCCCN1CCC(OCc2ccccc2)CC1)c1ccc([N+](=O)[O-])cc1 | 5.23 |
| O=C(OCCCCN1CCC(OC(c2ccccc2)c2ccccc2)CC1)c1cccc(Cl)c1 | 57.9 |
| O=C(Nc1ccc(Cl)cc1)OCCCCN1CCC(OC(c2ccccc2)c2ccccc2)CC1 | 13.7 |
| O=C(OCCCCN1CCC(OC(c2ccccc2)c2ccccc2)CC1)c1ccccc1 | 31.5 |
| O=C(OCCCCN1CCC(OCc2ccccc2)CC1)c1ccc(Cl)cc1 | 3.52 |
| O=C(OCCCCN1CCC(OC(c2ccccc2)c2ccccc2)CC1)c1ccc([N+](=O)[O-])cc1 | 26.8 |
| O=C(OCCCCN1CCC(OCc2ccccc2)CC1)c1ccccc1 | 1.89 |
| O=C(Nc1ccc(F)cc1)OCCCCN1CCC(OC(c2ccccc2)c2ccccc2)CC1 | 15.7 |
| O=C(Nc1ccc(Cl)cc1)OCCCCN1CCC(OCc2ccccc2)CC1 | 0.25 |

Molecular target: Acetylcholinesterase (Electrophorus electricus, UniProt O42275)
Sequence (O42275 whole entry): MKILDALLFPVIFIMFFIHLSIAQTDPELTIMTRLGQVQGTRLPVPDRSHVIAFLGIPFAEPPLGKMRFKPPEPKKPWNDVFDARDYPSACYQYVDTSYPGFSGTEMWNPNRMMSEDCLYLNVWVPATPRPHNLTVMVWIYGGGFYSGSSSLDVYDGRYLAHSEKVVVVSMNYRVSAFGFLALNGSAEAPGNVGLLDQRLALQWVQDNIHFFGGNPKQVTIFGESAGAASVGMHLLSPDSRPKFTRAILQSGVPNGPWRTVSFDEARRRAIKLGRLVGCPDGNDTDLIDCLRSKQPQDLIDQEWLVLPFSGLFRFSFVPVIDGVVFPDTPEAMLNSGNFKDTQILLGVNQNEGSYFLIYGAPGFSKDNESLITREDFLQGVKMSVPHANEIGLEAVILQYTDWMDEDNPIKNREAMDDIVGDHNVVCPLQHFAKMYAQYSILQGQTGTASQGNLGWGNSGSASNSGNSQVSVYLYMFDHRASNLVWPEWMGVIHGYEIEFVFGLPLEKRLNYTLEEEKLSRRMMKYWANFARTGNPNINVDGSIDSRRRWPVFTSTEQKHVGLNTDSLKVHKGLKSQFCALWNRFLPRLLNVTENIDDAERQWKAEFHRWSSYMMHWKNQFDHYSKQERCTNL
Description: Inhibition of Electrophorus electricus AChE by Ellman's method

| SMILES | IC50 [µM] |
| --- | --- |
| O=C(OCCCCN1CCC(OC(c2ccccc2)c2ccccc2)CC1)c1cccc(F)c1 | 7.72 |
| O=C(OCCCCN1CCC(OC(c2ccccc2)c2ccccc2)CC1)c1ccc(Cl)cc1 | 0.31 |
